Reference: PubChem BioAssay AID2305 (GlaxoSmithKline (GSK), 2010)

These compounds were tested on P. falciparum 3D7 growth, pLDH absorbance (assay: P. falciparum 3D7 growth inhibition, dose response, strain 3D7 (AID 2305)).

Row | SMILES | IC50 [nM]
1 | Cc1cc2nc(-c3ccc(SCC(=O)Nc4ccc5c(c4)OCCO5)nc3)[nH]c2cc1C | 990
2 | CN(CCCN(C)c1cc(NC(=O)c2cccc(F)c2)ccn1)Cc1cccc(O)c1 | 1920
3 | Cc1ccccc1CNc1nccc(NCCC(=O)Nc2ccccc2)n1 | 890
4 | COc1ccc(Nc2ncc3c(-c4cccc(NC(=O)c5ccc(N)cc5)c4)c[nH]c3n2)cc1OC | 970
5 | CCCNCc1ccc(-c2ccc(CN(CCOC)C(=O)c3ccccc3)cc2)nc1 | 880
6 | CNC(=O)c1cnc(Nc2ccc(N3CCN(C)CC3)cc2)nc1Nc1cccc([N+](=O)[O-])c1 | 290
7 | Cc1cccc2[nH]c(-c3ccc(-c4cccc(CNCc5cnn(-c6ccccc6)n5)c4)s3)nc12 | 550
8 | COc1ccc2nccc([C@@H](O)CN3CCC(NCc4nc5c([N+](=O)[O-])cccc5[nH]4)CC3)c2c1 | 710
9 | COc1cc(Cc2cnc(N)nc2N)cc(OCC(C)(C)C(=O)O)c1OC | 1110
10 | O=C(Nc1ccccc1Cc1ccccc1)c1ccccc1[N+](=O)[O-] | 860
11 | O=c1cc(NCCCNCc2sc(Br)nc2Br)[nH]c2ccccc12 | 870
12 | COc1ccc(-c2nc(NC(=O)Cc3cccc(OC)c3)sc2C)cc1 | 240
13 | CC(=O)c1cccc(NC(=O)N2CCCN(CCCCCNC(=O)/C=C/c3ccc(Cl)c(Cl)c3)CC2)c1 | 1010
14 | COC(C(=O)OCCC1CCCN1C)(c1ccccc1)c1ccccc1 (stereo not given) | 970
15 | O=C(Nc1c(F)cccc1F)c1cccc(-c2nn3ccccc3c2-c2ccnc(Nc3cccc(-c4cnco4)c3)n2)c1 | 360
16 | CC(Sc1nc2sccc2c(=O)n1C)C(=O)Nc1ccc2c(c1)OCO2 (stereo not given) | 1040
17 | CCOc1ncccc1CN1CCC(N2CCc3cc(NC(=O)c4ccco4)ccc32)C1 (stereo not given) | 760
18 | CC(=O)Nc1ccc(OCCCN(Cc2ccccc2OC(F)(F)F)c2ccc(C(F)(F)F)c(C#N)c2)c(Cl)c1 | 810
19 | CN1CCC(N(C)c2nccc(N3CCN(Cc4cncn4Cc4ccccc4)CC3)n2)CC1 | 700
20 | CCCC(C)Nc1nc(C)cc(N[C@@H](Cc2ccccc2)C(=O)NCc2cccc(F)c2)n1 (stereo not given in full) | 880
21 | COc1c(C2CCN(CCCCNC(=O)c3cc(-c4ccc(Cl)cc4)sc3C)CC2)ccc2c1CCCC2 | 630
22 | CC(=O)N(Cc1ccccc1-c1ccc(CNCCc2ccccc2)cc1)C1CCN(Cc2ccccc2)CC1 | 480
23 | O=[N+]([O-])c1ccc(C(O)P(=O)(c2ccccc2)c2ccccc2)cc1 (stereo not given) | 340
24 | Nc1ccnc2ccc(NC(=O)CCCCCc3ccccc3)cc12 | 860
25 | CC(C)(C(=O)Nc1ccc(N2CCC3(CCCN(CC4CC4)C3)CC2)c(Cl)c1)c1cccc(C(F)(F)F)c1 | 2000

Row | SMILES | IC50 [nM]
26 | O=C(Nc1ccc2c(c1)CCN(C1CCC1)CC2)c1cn(-c2ccccc2)nc1-c1ccccc1 | 810
27 | Cc1cc(F)ccc1C1CCN(CCCCNC(=O)c2ccc(NC(=O)c3ccc(Cl)cc3)cc2)CC1 | 690
28 | CC(C)(CNC(=O)C1CCN(CCOc2ccc(F)c(F)c2)CC1)c1nc(-c2ccc(Cl)c(O)c2)c(-c2ccncc2)[nH]1 | 320
29 | COc1ccc(C(=O)Nc2ccc(-c3ccc([N+](=O)[O-])cc3)cc2)cc1CCCN(C)C | 800
30 | COc1ccc(OC)c(-c2ccc(O)c(CNCC(C)c3ccccc3)c2)c1 (stereo not given) | 930
31 | N#Cc1cccc(NC(=O)Nc2ccc(CC(=O)N3CCc4cc(Cl)c(N5CCN(C/C=C/c6ccccc6)CC5)cc43)cc2)c1 | 870
32 | O=c1[nH]c2ccc3[nH]cccc3c2c1C=Nc1ccc(Cn2ccnc2)cc1 | 660
33 | Cc1cccc2[nH]c(-c3cccc(-c4cccc(NC(=O)c5ccc(=O)[nH]n5)c4)c3)nc12 | 790
34 | Cc1cc2nc(-c3ccc(C(=O)NCc4ccc(C(C)(C)C)cc4)cc3)[nH]c2cc1C | 770
35 | Cc1cc(NC(c2ccc(Cl)cc2)c2ccc3cccnc3c2O)no1 (stereo not given) | 1090
36 | c1ccc(CNCc2ccc(-c3cccc(-c4nc5ccccc5[nH]4)c3)cc2)cc1 | 420
37 | CS(=O)(=O)c1ccc(CNCc2ccc(-c3ccc(-c4nc5ccc(F)cc5[nH]4)s3)cc2)cc1 | 270
38 | CC(=O)Nc1ccc(CCNC(C)Cc2ccc(C(=O)Nc3ccc(CC(C)NCCc4cccc(Cl)c4)cc3)cc2)cc1 (stereo not given) | 330
39 | O=C(Nc1ccc(-c2ccccc2)cc1)Nc1ccc2c(c1)CCNCC2 | 350
40 | Brc1ccsc1-c1nc(NCCC(c2ccccc2)c2ccccc2)no1 | 1080
41 | CN1CCN(c2ccnc3ccc(NC(=O)Nc4ccc(Cl)c(Cl)c4)cc23)CC1 | 880
42 | Cc1ccc(CC(C)NCC(O)c2cccc(Cl)c2)cc1F (stereo not given) | 740
43 | COc1ccc(-c2ccc(CNCc3ccccc3)cc2)cc1S(=O)(=O)NCCN1CCCC1 | 730
44 | CC(C)c1sc(N2CCN(C)CC2)nc1C(=O)NCCc1cccc(Cl)c1 | 1490
45 | CCCNCc1ccc(-c2ccc(CN(CCOC)C(=O)c3cnc(C)cn3)cc2)nc1 | 1250
46 | CC(C)CC(C)NC(=O)C1Cc2c([nH]c3cc(Cl)ccc23)C2(CCN(CCc3ccccc3)CC2)N1 (stereo not given) | 810
47 | CCN1CCC(N(Cc2ccc(-c3ccc(C(F)(F)F)cc3)cc2)C(=O)Cn2c(CCc3cccc(F)c3F)cc(=O)c3cn(C)nc32)CC1 | 240
48 | O=[N+]([O-])c1ccccc1C=NNc1c2c(nc3ccccc13)CCCC2 | 310
49 | COCCn1c(Sc2ccc(C#N)c([N+](=O)[O-])c2)nnc1-c1ccc(N(C)C)cc1 | 1030
50 | CN1CCN(Cc2cc3cc(NC(=O)/C=C/c4ccc(Cl)cc4)ccc3s2)CC1 | 770
